What was measured:
wildtype TRKC = biological target: T1, wildtype TRKC (Homo sapiens, UniProt Q16288); assay: Reaction Biology HotSpot Kinase assay (direct enzyme phosphorylation), TRKC; type: biochemical; settings: 33P-ATP, 120 minutes at room temperature, filter-binding
T1 construct: purchased Reaction Biology
Procedure: (§1) Direct enzyme phosphorylation assay. The Reaction Biology HotSpot Kinase assay was used to screen the present invention against a panel of TRKA, TRKB, and TRKC kinases. For assays of all kinases, the TRK enzyme was prepared in base reaction buffer (20 mM Hepes (pH 7.5), 10 mM MgCl2, 1 mM EGTA, 0.02% Brij35, 0.02 mg/ml BSA, 0.1 mM Na3VO4, 2 mM DTT, 1% DMSO). The reaction was initiated by the addition of 33P-ATP (10 μCi/μL) into the mixture. The reaction mixture was incubated for 120 minutes at room temperature. Radioactivity was detected by filter-binding method, and kinase activity expressed as the percent remaining kinase activity in test samples compared to vehicle reactions. IC50 values and curve fitting were obtained using Prism (GraphPad Software). The activity of the besylate salt of the present invention was determined using a direct enzymatic Reaction Biology HotSpot Kinase assay. All IC50 values are presented in nanomolar concentration. In the direct enzymatic measurement assay, the IC50 of the besylate salt of the current invention against the various TRK kinases is shown in Table 1.

wildtype TRKB = biological target: T2, wildtype TRKB (Homo sapiens, UniProt Q16620); assay: Reaction Biology HotSpot Kinase assay (direct enzyme phosphorylation), TRKB; type: biochemical; settings: 33P-ATP, 120 minutes at room temperature, filter-binding
T2 construct: purchased Reaction Biology
T2 sequence (Q16620 32-822): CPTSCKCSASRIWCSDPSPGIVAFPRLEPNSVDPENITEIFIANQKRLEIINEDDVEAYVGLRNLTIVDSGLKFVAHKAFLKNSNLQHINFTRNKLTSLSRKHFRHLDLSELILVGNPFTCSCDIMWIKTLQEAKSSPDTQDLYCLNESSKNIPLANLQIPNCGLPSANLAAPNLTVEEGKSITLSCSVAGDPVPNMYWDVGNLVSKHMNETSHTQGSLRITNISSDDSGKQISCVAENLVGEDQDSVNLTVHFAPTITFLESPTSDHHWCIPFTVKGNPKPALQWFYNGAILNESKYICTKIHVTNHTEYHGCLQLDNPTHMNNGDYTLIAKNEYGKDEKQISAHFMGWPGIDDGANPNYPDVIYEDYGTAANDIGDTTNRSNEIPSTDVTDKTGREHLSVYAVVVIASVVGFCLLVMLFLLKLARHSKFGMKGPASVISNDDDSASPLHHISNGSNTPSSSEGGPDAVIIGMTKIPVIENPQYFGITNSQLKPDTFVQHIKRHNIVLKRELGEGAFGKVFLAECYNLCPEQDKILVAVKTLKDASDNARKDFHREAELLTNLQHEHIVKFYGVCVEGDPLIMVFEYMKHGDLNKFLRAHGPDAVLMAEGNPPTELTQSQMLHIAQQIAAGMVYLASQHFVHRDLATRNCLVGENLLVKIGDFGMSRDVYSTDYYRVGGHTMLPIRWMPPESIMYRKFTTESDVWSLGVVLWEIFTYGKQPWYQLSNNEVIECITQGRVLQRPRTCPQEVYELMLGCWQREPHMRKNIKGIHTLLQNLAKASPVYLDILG
Procedure: as §1

wildtype TRKA = biological target: T3, wildtype TRKA (Homo sapiens, UniProt P04629); assay: Reaction Biology HotSpot Kinase assay (direct enzyme phosphorylation), TRKA; type: biochemical; settings: 33P-ATP, 120 minutes at room temperature, filter-binding
T3 construct: purchased Reaction Biology
T3 sequence (P04629 33-796): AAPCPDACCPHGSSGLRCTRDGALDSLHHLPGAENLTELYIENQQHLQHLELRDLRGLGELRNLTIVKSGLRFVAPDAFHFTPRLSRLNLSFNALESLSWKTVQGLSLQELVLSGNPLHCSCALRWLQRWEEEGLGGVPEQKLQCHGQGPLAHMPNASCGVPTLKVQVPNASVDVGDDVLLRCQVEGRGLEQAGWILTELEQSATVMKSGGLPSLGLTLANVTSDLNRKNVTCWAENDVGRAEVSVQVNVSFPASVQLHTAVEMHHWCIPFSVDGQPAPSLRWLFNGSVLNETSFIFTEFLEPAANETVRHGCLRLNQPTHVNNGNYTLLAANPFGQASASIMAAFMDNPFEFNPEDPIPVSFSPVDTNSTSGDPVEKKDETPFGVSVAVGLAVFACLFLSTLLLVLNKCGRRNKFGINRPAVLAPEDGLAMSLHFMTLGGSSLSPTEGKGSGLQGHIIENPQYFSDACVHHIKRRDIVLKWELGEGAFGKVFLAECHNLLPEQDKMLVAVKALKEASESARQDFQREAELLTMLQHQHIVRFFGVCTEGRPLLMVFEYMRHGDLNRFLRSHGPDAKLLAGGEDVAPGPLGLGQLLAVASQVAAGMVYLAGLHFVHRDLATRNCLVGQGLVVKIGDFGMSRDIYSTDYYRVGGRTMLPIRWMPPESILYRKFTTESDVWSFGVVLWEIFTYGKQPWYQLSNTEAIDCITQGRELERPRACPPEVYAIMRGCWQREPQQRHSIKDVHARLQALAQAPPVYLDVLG
Procedure: as §1

[1] = osteoarthritis patients, lowered dose with risk minimization strategy; 22 patients; cited from earlier work

T1 sequence (Q16288 32-839): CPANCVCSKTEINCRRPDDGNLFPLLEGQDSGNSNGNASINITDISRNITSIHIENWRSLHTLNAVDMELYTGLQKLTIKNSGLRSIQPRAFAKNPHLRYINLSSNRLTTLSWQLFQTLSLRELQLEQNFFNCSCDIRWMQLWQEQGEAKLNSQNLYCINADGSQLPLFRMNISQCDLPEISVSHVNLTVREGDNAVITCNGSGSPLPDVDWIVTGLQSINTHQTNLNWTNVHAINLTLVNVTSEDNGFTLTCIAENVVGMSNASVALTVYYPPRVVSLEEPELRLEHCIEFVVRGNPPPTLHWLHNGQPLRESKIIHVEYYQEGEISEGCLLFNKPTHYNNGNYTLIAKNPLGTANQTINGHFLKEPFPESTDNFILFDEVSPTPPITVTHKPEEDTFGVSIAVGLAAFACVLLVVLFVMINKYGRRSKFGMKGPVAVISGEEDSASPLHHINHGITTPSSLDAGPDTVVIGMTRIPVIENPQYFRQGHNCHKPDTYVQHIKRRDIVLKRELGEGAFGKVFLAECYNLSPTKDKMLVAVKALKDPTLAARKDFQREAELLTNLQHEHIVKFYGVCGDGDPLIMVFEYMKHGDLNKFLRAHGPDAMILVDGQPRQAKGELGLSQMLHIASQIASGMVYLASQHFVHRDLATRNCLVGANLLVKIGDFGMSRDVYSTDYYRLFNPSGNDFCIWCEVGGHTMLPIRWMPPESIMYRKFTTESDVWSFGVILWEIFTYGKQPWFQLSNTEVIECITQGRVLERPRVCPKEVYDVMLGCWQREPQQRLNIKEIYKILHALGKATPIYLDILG

Compound	IC50 (wildtype TRKC) [nM]	IC50 (wildtype TRKB) [nM]	IC50 (wildtype TRKA) [nM]	patients treated who required knee or joint replacement [1] [%]
CC1(COc2ccc3c(c2)ncn3-c2ccc3cccc(N4CCC(N)CC4)c3n2)COC1 [crenolanib besylate]	1.68	77.7	31	
tanezumab				9.4
